# From patent publication US20260315763A1, “OLFACTORY DELIVERY OF THERAPEUTIC PEPTIDES” (Rocket Science Health Corp., priority 2023, published 2026)
# Entries after “also recorded” stand apart in the source; their conditions may differ.
# Columns and labels:
# [1] = Visualizing olfactory cleft delivery with methylene blue (nasal endoscopy); format: in vivo, human (healthy participants)
# From the text: The primary goal of these studies is to visualize delivery to the olfactory cleft (first with technetium-99, and then with methylene blue). The device was tuned to eject the fluid at a specific velocity. This velocity was chosen based on the viscosity of the fluid and the studies in Example 1, to maximize the extent of laminar flow.
# Visualizing Olfactory Cleft Delivery with Methylene Blue
# Participants: Five healthy participants (ages 19+) with no history of sinonasal symptoms and no evidence of nasal inflammation were recruited for this study. Prior to recruitment of participants study procedures were approved by Providence Health Care research ethics board, (British Columbia, Canada) and conducted under Health Canada Investigational Testing Authorization #314993. All participants were assessed by a licensed otolaryngologist physician to confirm their eligibility. Participants completed two study visits during which a licensed otolaryngologist physician administered 0.1 mL of the visual dye tracer, methylene blue.
# Study Design: During the first visit, the methylene blue was administered using the Laminar Fluid Ejection method (1.5 mm cannula; velocity=4.5 m/s). During the second visit, methylene blue was administered using a conventional nasal spray device (Pharma systems Item #10272, UPC: 063636802714). The Pharma systems spray device was used in these experiments because it was the device normally used by the compounding pharmacy for intranasal delivery. It was the device patients and clinicians were used to at this clinic.
# Following delivery, the physician used a nasal endoscope to image the deposition of methylene blue to the olfactory cleft at up to five time points (1, 5, 8, 12, and 15 minutes following delivery). From each image, the physician judged whether at least 50% of the methylene blue fluid was delivered to the olfactory cleft. If <50% of the methylene blue was judged to have deposited in the olfactory cleft, imaging was stopped and that session's trial was completed.
# [2] = tested on: prefrontal brain activity; assay: Insulin delivery fMRI analysis: ALFF, prefrontal brain activity; format: in vivo, human (participants)
# From the text: In the in-human studies below, the device was tuned to eject the fluid at a specific velocity. This velocity was chosen based on the viscosity of the fluid and the studies described in Example 1, to maximize the extent of laminar flow.
# (§1) Participants: Eight participants (male and female, ages 23-30) were recruited for this study from the New Brunswick area. Participants reported no history of abnormal nasal or sinus symptoms, insulin use, diabetes, metabolic disorder, or any complicating medical conditions, or contraindications for nasal cannulation, MRI or venous blood sampling. Additionally, participants reported no previous diagnosis of SARS-COV-2 with symptoms of anosmia. Study procedures were approved by Horizon Health Network's Human Research Protection Program prior to recruitment of participants.
# (§2) Study Design: An open-label 4-arm crossover study design was used to understand the insulin brain effects between the focal deposition (cannula) and the standard nasal mister method. Undiluted solution of 80 IU (0.16 ml) prepared from U500 insulin was delivered to the olfactory region (condition A). Under this condition, 40 IU (0.08 ml) of human insulin was delivered directly by an ENT physician to each nostril. For condition B, undiluted solution containing 15% MucoLox (a thickening agent) and 80 IU (0.16 ml) insulin was delivered to the olfactory region. For condition C, a total of 1.6 ml insulin and sterile water mixture was prepared for Nasal spray delivery. The nasal spray bottle contained 80 IU of U500 insulin mixed with a sterile water solution. The spray was delivered over 4 minutes with two puffs per nostril every minute. Condition sequences AC, CA, BC, and CB comprise the 4 arms of the study.
# Participants were randomly assigned to one of two blocks. In Block 1, participants were randomly assigned by alternating sequence to one of the A arms (AC or CA). […] In Block 2, participants were randomly assigned by alternating sequence to one of the B arms (BC or CB). Block 2 participants did receive MucoLox in the cannula session. For a given participant, appointments for each condition were scheduled at a minimum of 14 days apart to ensure no carry-over effects from the previous condition.
# MRI Acquisition: Magnetic resonance imaging was completed at an imaging clinic in Moncton (Moncton MRI) using standard sequences on a 3T Siemens Skyra, VD13. Anatomical T1-weighted MPRAGE images were acquired for each subject [TR=1900 ms, TE=2.99 ms, Flip Angle=9 degrees, Voxel Size=0.45×0.45×0.9 mm, Dimensions=448×512×160]. Resting state functional T2*-weighted BOLD images [TR=2600 ms, TE=30 ms, Flip Angle=90 degrees, Voxel Size=3×3×3 mm, Dimensions=80×80×45] were acquired for each subject at baseline and again 15 minutes and 60 minutes following intranasal delivery of insulin. Each resting state functional scan consisted of 180 volumes acquired over the course of 7 minutes and 48 seconds.
# MRI Preprocessing: MRI data was preprocessed using fMRIPrep. Preprocessing steps of the anatomical images included correction for intensity nonuniformity, skull stripping, segmentation of gray matter, white matter, and cerebrospinal fluid (CSF) masks, and normalization to MNI template space. Preprocessing steps for the functional images included slice time correction, head motion correction (calculation of framewise displacement and 6-degrees of motion parameters and their temporal derivatives), registration to the subjects T1w image, normalization to MNI template space, and spatial smoothing (3 mm FWHM Gaussian kernel).
# fMRI Denoising: Functional MRI data were denoised using a standard denoising pipeline implemented in the CONN Toolbox (v 22.a) and SPM (v 12.7). […]
# inferior temporal gyrus = assay: fMRI region of interest analysis: mean ALFF in inferior temporal gyrus; format: in vivo, human (participants); conditions: both olfactory delivery and spray conditions; 80 IU; baseline, 15, 60 min
# From the text: as §1
# as §2, with “The spray was delivered over 4 minutes with two puffs per nostril every minute. Condition sequences AC, CA, BC, and CB comprise the 4 arms of the study.” left out
# [3] = tested on: anterior division of the cingulate gyrus; assay: fMRI region of interest analysis: mean ALFF in anterior division of the cingulate gyrus; format: in vivo, human (participants); conditions: both olfactory delivery and spray conditions; 80 IU; baseline, 15, 60 min
# From the text: as §1
# as §2, with “The spray was delivered over 4 minutes with two puffs per nostril every minute. Condition sequences AC, CA, BC, and CB comprise the 4 arms of the study.” left out
# [4] = tested on: prefrontal and posterior brain regions; assay: fMRI control analysis: ALFF in spray condition across Blocks 1 and 2; format: in vivo, human (participants); conditions: insulin without MucoLox, 80 IU
# From the text: as §1
# as §2, with “The spray was delivered over 4 minutes with two puffs per nostril every minute. Condition sequences AC, CA, BC, and CB comprise the 4 arms of the study.” left out
compound,measurement,setting,value
"CN(C)c1ccc2nc3ccc(=[N+](C)C)cc-3sc2c1 [Methylene Blue, methylene blue]",participants with successful delivery of >50% of the methylene blue to the olfactory cleft,"[1]; Laminar Fluid Ejection method, 0.1 mL",Four of the five participants
same,delivery of at least 50% of the dye to the olfactory cleft,"[1]; conventional nasal spray, each of the five participants",failed to deliver at least 50% of the dye to the olfactory cleft
same,Olfactory Residence Time,"[1]; participant 2.01, LFE Method, 0.1 mL, 1 attempt",15 min
same,Olfactory Residence Time,"[1]; participant 2.01, Nasal Spray, 0.1 mL, 1 attempt",0 min
same,Olfactory Residence Time,"[1]; participant 2.02, LFE Method, 0.1 mL, 2 attempts",8 min
same,Olfactory Residence Time,"[1]; participant 2.02, Nasal Spray, 0.1 mL, 1 attempt",0 min
same,Olfactory Residence Time,"[1]; participant 2.03, LFE Method, 0.1 mL, 1 attempt",5 min
same,Olfactory Residence Time,"[1]; participant 2.03, Nasal Spray, 0.1 mL, 1 attempt",0 min
same,Olfactory Residence Time,"[1]; participant 2.04, LFE Method, 0.1 mL, 5 attempts",0 min
same,Olfactory Residence Time,"[1]; participant 2.04, Nasal Spray, 0.1 mL, 1 attempt",0 min
same,Olfactory Residence Time,"[1]; participant 2.05, LFE Method, 0.1 mL, 1 attempt",1 min
same,Olfactory Residence Time,"[1]; participant 2.05, Nasal Spray, 0.1 mL, 1 attempt",0 min
insulin: Undiluted solution of 80 IU (0.16 ml) prepared from U500 insulin; spray: 80 IU of U500 insulin mixed with a sterile water solution,prefrontal brain activity compared to baseline,"[2]; 80 IU intranasal insulin, scans after receiving insulin (15 and 60 minutes)",decreased prefrontal brain activity compared to baseline scans
same,"decrease in prefrontal brain activity, olfactory delivery device compared to spray mister","[2]; 80 IU, olfactory delivery device vs traditional spray mister",larger and longer-lasting decrease in prefrontal brain activity
same,"prefrontal deactivation, olfactory delivery device compared to spray device","[2]; Block 1 (insulin without MucoLox), 80 IU",greater and more sustained
same,"reduction in prefrontal brain activity, olfactory delivery compared to spray","[2]; Block 1, 80 IU, 60 minutes",even more intense in the olfactory delivery condition
same,change in prefrontal brain activity compared to baseline,"[2]; Block 1, both spray and olfactory delivery device, 80 IU, 15 minutes",reduction in brain activity in prefrontal regions
same,change in prefrontal brain activity compared to baseline,"[2]; Block 1, olfactory delivery device, 80 IU, 15 minutes, compared to insulin with MucoLox (Block 2)",this reduction is greater in the absence of MucoLox
same,change in prefrontal brain activity compared to baseline,"[2]; Block 2, spray mister, 80 IU, 15 minutes",small decrease of prefrontal brain activity
same,change in prefrontal brain activity compared to baseline,"[2]; Block 2, spray mister, 80 IU, 60 minutes",remained deactivated
same,"reduction in prefrontal brain activity, spray condition compared to olfactory delivery with MucoLox","[2]; Block 2, spray, 80 IU, 60 minutes",more intense in the spray condition
same,duration of reduction of brain activity after delivery,[2]; delivery of insulin using the method disclosed (olfactory delivery),at least 60 minutes
same,"deactivation of the prefrontal cortex, olfactory delivery device compared to spray mister","[2]; intranasal delivery of insulin, 80 IU, overall conclusion",deactivation of the prefrontal cortex to a greater degree
same,"deactivation of prefrontal cortex, insulin alone compared to insulin with MucoLox","[2]; olfactory delivery device, 80 IU","greater, longer lasting deactivation of prefrontal cortex"
same,"reduction in prefrontal brain activity, Block 1 compared to Block 2 (MucoLox)","[2]; olfactory delivery device, 80 IU, 60 minutes",more intense in Block 1 participants who did not receive MucoLox
same,"ALFF over time, inferior temporal gyrus",inferior temporal gyrus,increased over time; also recorded: increase in ALFF for both conditions
same,"ALFF over time, anterior division of the cingulate gyrus",[3],decreased over time; also recorded: decrease in ALFF in both the olfactory delivery and spray conditions
same,"brain activity, Block 2 compared to Block 1 participants",[4]; 15 minutes,increased brain activity in prefrontal cortex and reduced brain activity in posterior brain regions
same,"brain activity, Block 2 compared to Block 1 participants",[4]; 60 minutes,decreased brain activity in select prefrontal and posterior regions
